# Measurements: patent US20250269062A1, “METHODS FOR IN VIVO EDITING OF A LIVER GENE” (INTELLIA THERAPEUTICS, INC., priority 2021, published 2025)
# “Also recorded” adds a separate entry of the source.
# Assays:
# [1] = Population pharmacokinetics (POPPK) model and simulations of LP01; set-up: species or system human; conditions: interim POPPK model, 15 ATTRv-PN subjects
# Protocol: An interim POPPK model was developed for NTLA-2001 analyte LP01 based on a published model using NONMEM software (Version 7.5.0, ICON Clinical Research LLC, Blue Vell, PA). There were 290 observations in 15 ATTRv-PN subjects for this analysis. Parameter values for this model and goodness of fit plots were determined (not shown). The relationship between body weight and the estimated elimination clearance was determined, together with the modeled linear relationship.
# FIG. 26 provides the distribution of simulated AUC by weight quartile following administration of 1 mg/kg (left panel) and 80 mg (right panel) NTLA-2001. […] Likewise, following 80 mg NTLA-2001, there is again overlap of simulated LP01 AUC across weight quartiles. […] The ratio of simulated mean exposures in the 4th ([90.3-146] kg) to the 1st weight quartile ([48-71.7] kg) is 1.25 for 1 mg/kg NTLA-2001 and 0.81 for 80 mg NTLA-2001. Simulations identified NTLA-2001 80 mg as the fixed dose equivalent to 1.0 mg/kg.
# [2] = Clinical plasma pharmacokinetics of NTLA-2001 components (LC-MS/MS for Lipid A and DMG-PEG2k, qRT-PCR for guide RNA and mRNA); assay type: in vivo, human; conditions: for plasma concentration-time profile: following single IV infusion of NTLA-2001, interim
# Text: Plasma pharmacokinetic methods were developed and validated to quantify 4 components of NTLA-2001: ionizable Lipid A (also referred to as LP01), DMG-PEG2k lipid, guide RNA, and mRNA. Lipid A and DMG-PEG2k are quantified by liquid chromatography with tandem mass spectrometry (LC-MS/MS) method. Assay signal [ratio of area under the curve of reference standard over internal standard (IS, using isotopic labelled reference standard)] vs. Concentration response standard curve is used. QCs and unknown sample signal are interpolated from standard curve to determine plasma concentrations. Both guide RNA and mRNA are quantified by qRT-PCR. Signal Cycle Threshold (Ct) vs. Concentration standard curve is used. QCs and unknown samples were interpolated from standard curve to quantify plasma concentrations. Urine PK methods were developed and validated for Lipid A and DMG-PEG2k to characterize excretion.
# Preliminary plasma PK data are available for the four components of NTLA-2001 (ionizable Lipid A, DMG-PEG2k lipid, guide RNA, and mRNA). […] FIG. 24. Data for other components not shown.
structure (smiles),measurement,setting,value
"CCCCC/C=C\C/C=C\CCCCCCCC(=O)OCC(COC(=O)CCC(OCCCCCCCC)OCCCCCCCC)COC(=O)OCCCN(CC)CC (stereo not shown) [LP01, (9Z,12Z)-3-((4,4-bis(octyloxy)butanoyl)oxy)-2-((((3-(diethylamino)propoxy)carbonyl)oxy)methyl)propyl octadeca-9,12-dienoate]",relationship between body weight and estimated elimination clearance,[1],less than proportional
same,plasma concentration-time profile,[2],"rapid decline from peak levels, followed by a secondary peak, and then a log-linear phase; also recorded: declines rapidly from peak and then exhibits a secondary peak and log-linear phase"
same,plasma concentration-time profile,[2]; listed as NTLA-2001 ionizable lipid,rapid decline from peak levels followed by a secondary peak and then a log-linear phase
same,half-life,"[2]; human, plasma, single IV infusion of NTLA-2001 at 0.1 to 1.0 mg/kg, range across doses, preliminary, read-out: mean (% CV) terminal t1/2",19.7 to 24.8 h
